Like-named read-outs stand apart in the source and are kept apart here.
How the values were obtained:
velvetleaf [1] = assay: Test A pre-/postemergence herbicide test; type: in vivo, Abutilon theophrasti
Outline: (§1)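 Sandy loam soil given preemergence directed spray; plants at 2 to 10 cm, one- to two-leaf stage, sprayed to runoff postemergence, compounds in non-phytotoxic solvent with surfactant. Injury rated visually versus untreated controls after about ten greenhouse days, 0 (no effect) to 100 (complete control); dash means not tested.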

[2] = tested on: common (oilseed) sunflower; assay: Test C pre-/postemergence herbicide test; type: in vivo, Helianthus annuus
Outline: (§2)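 Preemergence: seeds planted and treated with compound in non-phytotoxic solvent with surfactant; postemergence: plants at 2 to 18 cm (1- to 4-leaf stage) sprayed likewise. Kept in greenhouse 12 to 14 days, then visually rated against controls, 0 (no effect) to 100 (complete control).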

pigweed = assay: Test C pre-/postemergence herbicide test; type: in vivo, Amaranthus retroflexus; conditions: for Pigweed plant response rating: 500 g ai/ha
Outline: as §2

cocklebur = assay: Test C pre-/postemergence herbicide test; type: in vivo, Xanthium strumarium; conditions: for Cocklebur plant response rating: 500 g ai/ha
Outline: as §2

giant foxtail = assay: Test A pre-/postemergence herbicide test; type: in vivo, Setaria faberi; conditions: for pest or weed control at 500 g/ha / pest or weed control at 2000 g/ha: Setaria faberi, 240 h
Outline: as §1

velvetleaf [3] = assay: Test C pre-/postemergence herbicide test; type: in vivo, Abutilon theophrasti; conditions: for Velvetleaf plant response rating: 500 g ai/ha
Outline: as §2

large crabgrass = assay: Test C pre-/postemergence herbicide test; type: in vivo, Digitaria sanguinalis; conditions: for Crabgrass, Large plant response rating: 500 g ai/ha
Outline: as §2

[4] = Postemergence, 500 g ai/ha, 0 to 100 scale, 0 no effect, 100 complete control
[5] = Postemergence, 2000 g ai/ha, 0 to 100 scale, 0 no effect, 100 complete control
[6] = Preemergence, 500 g ai/ha, visual rating, 0 to 100 scale (0 no effect, 100 complete control)
[7] = Preemergence, 2000 g ai/ha, 0 to 100 scale, 0 no effect, 100 complete control
[8] = 250 g ai/ha, scale 0 to 100 (0 no effect, 100 complete control), visual, 12 to 14 days, preemergence
[9] = Postemergence, 250 g ai/ha, scale 0 to 100, 0 no effect, 100 complete control
[10] = Preemergence, scale 0 to 100, 0 no effect, 100 complete control
[11] = postemergence, 125 g ai/ha, scale 0 to 100
[12] = postemergence, 62 g ai/ha, scale 0 to 100
[13] = 125 g ai/ha, scale 0-100, preemergence
[14] = Postemergence, 125 g ai/ha, scale 0 to 100, 0 no effect, 100 complete control

In the case of `CCOC(=O)c1cccc(NC(=O)c2cc(C(C)(C)C)nn2CC)c1` [Compound 80, ethyl 3-[[[3-(1,1-dimethylethyl)-1-ethyl-1H-pyrazol-5-yl]carbonyl]-amino]benzoate], the pest or weed control at 2000 g/ha (velvetleaf [1]; Abutilon theophrasti, post-emergence, 240 h, Postemergence, 2000 g ai/ha, 0 to 100 scale, 0 no effect, 100 complete control, read-out: Plant response rating, Velvetleaf) is reported as 75%, the pest or weed control at 500 g/ha (velvetleaf [1]; Abutilon theophrasti, pre-emergence, 240 h, Preemergence, 500 g ai/ha, visual rating, 0 to 100 scale (0 no effect, 100 complete control), read-out: Velvetleaf plant response rating) is reported as 10% and the pest or weed control at 2000 g/ha (velvetleaf [1]; Abutilon theophrasti, pre-emergence, 240 h, Preemergence, 2000 g ai/ha, visual rating, 0 to 100 scale (0 no effect, 100 complete control), read-out: Velvetleaf plant response rating) is reported as 10%. The pest or weed control at 31 g/ha ([2]; Helianthus annuus, pre-emergence, 31 g ai/ha, preemergence, scale 0 to 100, read-out: Plant response rating, Sunflower) was 0%, the pest or weed control at 125 g/ha ([2]; Helianthus annuus, pre-emergence, 125 g ai/ha, scale 0 (no effect) to 100 (complete control), visual, 12 to 14 days, read-out: Plant response rating, Sunflower) was 0% and the “Plant response rating (0 = no effect, 100 = complete control), Pigweed” value (pigweed; 62 g ai/ha, preemergence) was 40. It also gave a pest or weed control at 250 g/ha (pigweed; Amaranthus retroflexus, post-emergence, Postemergence, 250 g ai/ha, scale 0 to 100, 0 no effect, 100 complete control, read-out: Plant response rating, Pigweed) of 100%, a pest or weed control at 125 g/ha (pigweed; Amaranthus retroflexus, post-emergence, postemergence, 125 g ai/ha, scale 0 to 100, read-out: Plant response rating, Pigweed) of 100% and a pest or weed control at 62 g/ha (pigweed; Amaranthus retroflexus, post-emergence, postemergence, 62 g ai/ha, scale 0 to 100, read-out: Plant response rating, Pigweed) of 100%. For the same compound, the pest or weed control at 31 g/ha (pigweed; Amaranthus retroflexus, pre-emergence, 31 g ai/ha, preemergence, scale 0 to 100, read-out: Plant response rating, Pigweed) was 30%, the pest or weed control at 125 g/ha (pigweed; Amaranthus retroflexus, pre-emergence, 125 g ai/ha, scale 0 (no effect) to 100 (complete control), visual, 12 to 14 days, read-out: Plant response rating, Pigweed) was 100% and the “Plant response rating (0 = no effect, 100 = complete control), Cocklebur” value (cocklebur; 62 g ai/ha, preemergence) was 0. The pest or weed control at 250 g/ha (cocklebur; Xanthium strumarium, post-emergence, 312 h, Postemergence, 250 g ai/ha, scale 0 to 100, 0 no effect, 100 complete control, read-out: Plant response rating, Cocklebur) was 100%, the pest or weed control at 125 g/ha (cocklebur; Xanthium strumarium, post-emergence, 312 h, postemergence, 125 g ai/ha, scale 0 to 100, read-out: Plant response rating, Cocklebur) was 90% and the pest or weed control at 31 g/ha (cocklebur; Xanthium strumarium, post-emergence, 312 h, postemergence, 31 g ai/ha, scale 0 to 100, read-out: Plant response rating, Cocklebur) was 70%. The pest or weed control at 62 g/ha (cocklebur; Xanthium strumarium, post-emergence, 312 h, postemergence, 62 g ai/ha, scale 0 to 100, read-out: Plant response rating, Cocklebur) was 90%, the pest or weed control at 125 g/ha (cocklebur; Xanthium strumarium, pre-emergence, 312 h, 125 g ai/ha, scale 0 (no effect) to 100 (complete control), visual, 12 to 14 days, read-out: Plant response rating, Cocklebur) was 10% and the pest or weed control at 250 g/ha (cocklebur; Xanthium strumarium, pre-emergence, 312 h, 250 g ai/ha, scale 0 to 100 (0 no effect, 100 complete control), visual, 12 to 14 days, read-out: Plant response rating, Cocklebur) was 10%. For the same compound, the pest or weed control at 500 g/ha (giant foxtail; post-emergence, Postemergence, 500 g ai/ha, 0 to 100 scale, 0 no effect, 100 complete control, read-out: Plant response rating, Foxtail, Giant) was 80%, the pest or weed control at 2000 g/ha (giant foxtail; post-emergence, Postemergence, 2000 g ai/ha, 0 to 100 scale, 0 no effect, 100 complete control, read-out: Plant response rating, Foxtail, Giant) was 90% and the pest or weed control at 500 g/ha (giant foxtail; pre-emergence, Preemergence, 500 g ai/ha, visual rating, 0 to 100 scale (0 no effect, 100 complete control), read-out: Foxtail, Giant plant response rating) was 20%. The pest or weed control at 2000 g/ha (giant foxtail; pre-emergence, Preemergence, 2000 g ai/ha, 0 to 100 scale, 0 no effect, 100 complete control, read-out: Foxtail, Giant plant response rating) was 70%, the pest or weed control at 250 g/ha (velvetleaf [3]; Abutilon theophrasti, post-emergence, Postemergence, 250 g ai/ha, scale 0 to 100, 0 no effect, 100 complete control, read-out: Plant response rating, Velvetleaf) was 100% and the pest or weed control at 125 g/ha (velvetleaf [3]; Abutilon theophrasti, post-emergence, postemergence, 125 g ai/ha, scale 0 to 100, read-out: Plant response rating, Velvetleaf) was 100%. It also gave a pest or weed control at 62 g/ha (velvetleaf [3]; Abutilon theophrasti, post-emergence, postemergence, 62 g ai/ha, scale 0 to 100, read-out: Plant response rating, Velvetleaf) of 100%, a pest or weed control at 31 g/ha (velvetleaf [3]; Abutilon theophrasti, pre-emergence, 31 g ai/ha, preemergence, scale 0 to 100, read-out: Plant response rating, Velvetleaf) of 20% and a pest or weed control at 125 g/ha (velvetleaf [3]; Abutilon theophrasti, pre-emergence, 125 g ai/ha, scale 0 (no effect) to 100 (complete control), visual, 12 to 14 days, read-out: Plant response rating, Velvetleaf) of 100%. The “Plant response rating (0 = no effect, 100 = complete control), Crabgrass, Large” value (large crabgrass; 62 g ai/ha, preemergence) was 0, the pest or weed control at 250 g/ha (large crabgrass; Digitaria sanguinalis, post-emergence, 312 h, Postemergence, 250 g ai/ha, scale 0 to 100, 0 no effect, 100 complete control, read-out: Plant response rating, Crabgrass, Large) was 90% and the pest or weed control at 62 g/ha (large crabgrass; Digitaria sanguinalis, post-emergence, 312 h, postemergence, 62 g ai/ha, scale 0 to 100, read-out: Plant response rating, Crabgrass, Large) was 90%. For the same compound, the pest or weed control at 31 g/ha (large crabgrass; Digitaria sanguinalis, pre-emergence, 312 h, 31 g ai/ha, preemergence, scale 0 to 100, read-out: Plant response rating, Crabgrass, Large) was 0%, the pest or weed control at 125 g/ha (large crabgrass; Digitaria sanguinalis, pre-emergence, 312 h, 125 g ai/ha, scale 0 (no effect) to 100 (complete control), visual, 12 to 14 days, read-out: Plant response rating, Crabgrass, Large) was 10% and the pest or weed control at 250 g/ha (large crabgrass; Digitaria sanguinalis, pre-emergence, 312 h, 250 g ai/ha, scale 0 to 100 (0 no effect, 100 complete control), visual, 12 to 14 days, read-out: Plant response rating, Crabgrass, Large) was 10%.

With `C=Cn1nc(C(C)(C)C)cc1C(=O)Nc1cccc(C(=O)N(CC)CC)c1` [Compound 34] the “Plant response rating, Velvetleaf” value (velvetleaf [1]; [4]) was 20, the “Plant response rating, Velvetleaf” value (velvetleaf [1]; [5]) was 30 and the “Velvetleaf plant response rating” value (velvetleaf [1]; [6]) was 20. For the same compound, the “Velvetleaf plant response rating” value (velvetleaf [1]; [7]) was 25, the “Plant response rating (0 = no effect, 100 = complete control), Sunflower” value ([2]; 62 g ai/ha, preemergence) was 0 and the “Plant response rating, Sunflower” value [2, 8] was 0. For the same compound, the “Sunflower plant response rating” value ([2]; Preemergence, 500 g ai/ha, scale 0 to 100, 0 no effect, 100 complete control) was 0, the “Plant response rating (0 = no effect, 100 = complete control), Pigweed” value (pigweed; 62 g ai/ha, preemergence) was 100 and the “Plant response rating, Pigweed” value (pigweed; [8]) was 100. The “Pigweed plant response rating” value (pigweed; Postemergence, scale 0 to 100) was 100, the “Plant response rating, Pigweed” value (pigweed; [9]) was 100 and the “Pigweed plant response rating” value (pigweed; [10]) was 100. The “Plant response rating, Pigweed” value (pigweed; [11]) was 100, the “Plant response rating, Pigweed” value (pigweed; [12]) was 100 and the “Plant response rating (0 = no effect, 100 = complete control), Cocklebur” value (cocklebur; 62 g ai/ha, preemergence) was 0. For the same compound, the “Plant response rating, Cocklebur” value (cocklebur; [13]) was 0, the “Plant response rating, Cocklebur” value (cocklebur; [8]) was 0 and the “Cocklebur plant response rating” value (cocklebur; Postemergence, scale 0 to 100) was 70. The “Plant response rating, Cocklebur” value (cocklebur; [14]) was 20, the “Plant response rating, Cocklebur” value (cocklebur; [9]) was 50 and the “Cocklebur plant response rating” value (cocklebur; [10]) was 0. The “Plant response rating, Cocklebur” value (cocklebur; [12]) was 20, the “Plant response rating, Foxtail, Giant” value (giant foxtail; [4]) was 30 and the “Plant response rating, Foxtail, Giant” value (giant foxtail; [5]) was 40. For the same compound, the “Foxtail, Giant plant response rating” value (giant foxtail; [6]) was 40, the “Foxtail, Giant plant response rating” value (giant foxtail; [7]) was 85 and the “Plant response rating (0 = no effect, 100 = complete control), Velvetleaf” value (velvetleaf [3]; 62 g ai/ha, preemergence) was 0. For the same compound, the “Plant response rating, Velvetleaf” value (velvetleaf [3]; [8]) was 90, the “Velvetleaf plant response rating” value (velvetleaf [3]; Postemergence, scale 0 to 100) was 70 and the “Plant response rating, Velvetleaf” value (velvetleaf [3]; [9]) was 70. The “Velvetleaf plant response rating” value (velvetleaf [3]; [10]) was 100, the “Plant response rating, Velvetleaf” value (velvetleaf [3]; [11]) was 70 and the “Plant response rating, Velvetleaf” value (velvetleaf [3]; [12]) was 20. The “Plant response rating (0 = no effect, 100 = complete control), Crabgrass, Large” value (large crabgrass; 62 g ai/ha, preemergence) was 80, the “Plant response rating, Crabgrass, Large” value (large crabgrass; [13]) was 100 and the “Plant response rating, Crabgrass, Large” value (large crabgrass; [8]) was 100. For the same compound, the “Crabgrass, Large plant response rating” value (large crabgrass; Postemergence, scale 0 to 100) was 60, the “Plant response rating, Crabgrass, Large” value (large crabgrass; [14]) was 40 and the “Plant response rating, Crabgrass, Large” value (large crabgrass; [9]) was 60. For the same compound, the “Crabgrass, Large plant response rating” value (large crabgrass; [10]) was 100 and the “Plant response rating, Crabgrass, Large” value (large crabgrass; [12]) was 20.

Reference: patent publication US20060069132A1, “Azolecarboxamide herbicides” (priority 2004, published 2006)
